Data from patent publication US20240208968A1, “ALPHA V BETA 6 AND ALPHA V BETA 1 INTEGRIN INHIBITORS AND USES THEREOF” (DiCE Molecules SV, Inc., priority 2021, published 2024).

Legend:
[1] = target: αvβ1 (Homo sapiens, UniProt P05556+P06756); experiment: Solid Phase Integrin αvβ1 Assay; type: binding
In short: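 Compound competes for αvβ1 binding to immobilized TGFb1-LAP (1 µg/mL coat) in Mn2+ (1 mM MnCl2), 2% BSA binding buffer over 90 min at room temperature, integrin added at 0.2 µg/mL. Read-out: streptavidin-HRP/TMB; IC50 from Levenberg-Marquardt four-parameter fit.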

[2] = target: αvβ6 (Homo sapiens, UniProt P06756+P18564); experiment: Solid Phase Integrin αvβ6 Assay; type: binding
In short: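 Inhibition of αvβ6 binding to immobilized recombinant TGFb1-LAP (1 μg/mL coating), 1 h at room temperature with 1 mM MnCl2 in BSA/TBST buffer, integrin diluted to 0.2 μg/mL before addition. Streptavidin-HRP/TMB read-out; four-parameter logistic fitting gave IC50.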

Sequence of αvβ6 (P06756 31-992 limits assumed): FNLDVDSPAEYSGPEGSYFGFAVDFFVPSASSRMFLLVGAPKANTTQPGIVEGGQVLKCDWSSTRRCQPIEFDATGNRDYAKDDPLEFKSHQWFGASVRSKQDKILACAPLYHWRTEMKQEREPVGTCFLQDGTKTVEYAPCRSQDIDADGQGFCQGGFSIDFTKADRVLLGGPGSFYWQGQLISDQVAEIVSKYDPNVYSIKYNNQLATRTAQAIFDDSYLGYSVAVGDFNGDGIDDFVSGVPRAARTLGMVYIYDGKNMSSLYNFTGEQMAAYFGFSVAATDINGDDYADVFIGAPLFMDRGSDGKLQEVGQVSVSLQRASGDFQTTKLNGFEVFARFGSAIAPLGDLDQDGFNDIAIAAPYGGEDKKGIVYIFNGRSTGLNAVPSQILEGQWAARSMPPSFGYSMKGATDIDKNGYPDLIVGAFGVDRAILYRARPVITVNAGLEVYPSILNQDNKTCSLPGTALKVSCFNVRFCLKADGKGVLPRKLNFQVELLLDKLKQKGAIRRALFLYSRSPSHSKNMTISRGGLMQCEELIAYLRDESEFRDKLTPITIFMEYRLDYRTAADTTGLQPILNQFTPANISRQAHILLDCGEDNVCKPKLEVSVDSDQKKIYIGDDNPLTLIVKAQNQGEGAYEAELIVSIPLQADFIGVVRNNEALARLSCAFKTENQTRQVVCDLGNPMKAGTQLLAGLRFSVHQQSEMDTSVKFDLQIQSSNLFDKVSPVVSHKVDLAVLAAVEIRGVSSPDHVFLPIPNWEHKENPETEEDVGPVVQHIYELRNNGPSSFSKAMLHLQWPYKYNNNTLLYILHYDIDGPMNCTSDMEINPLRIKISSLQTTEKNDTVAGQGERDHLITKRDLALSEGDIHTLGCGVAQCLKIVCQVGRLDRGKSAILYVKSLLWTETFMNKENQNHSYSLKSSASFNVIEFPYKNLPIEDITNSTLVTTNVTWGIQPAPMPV
Sequence of αvβ6 (P18564 22-707 limits assumed): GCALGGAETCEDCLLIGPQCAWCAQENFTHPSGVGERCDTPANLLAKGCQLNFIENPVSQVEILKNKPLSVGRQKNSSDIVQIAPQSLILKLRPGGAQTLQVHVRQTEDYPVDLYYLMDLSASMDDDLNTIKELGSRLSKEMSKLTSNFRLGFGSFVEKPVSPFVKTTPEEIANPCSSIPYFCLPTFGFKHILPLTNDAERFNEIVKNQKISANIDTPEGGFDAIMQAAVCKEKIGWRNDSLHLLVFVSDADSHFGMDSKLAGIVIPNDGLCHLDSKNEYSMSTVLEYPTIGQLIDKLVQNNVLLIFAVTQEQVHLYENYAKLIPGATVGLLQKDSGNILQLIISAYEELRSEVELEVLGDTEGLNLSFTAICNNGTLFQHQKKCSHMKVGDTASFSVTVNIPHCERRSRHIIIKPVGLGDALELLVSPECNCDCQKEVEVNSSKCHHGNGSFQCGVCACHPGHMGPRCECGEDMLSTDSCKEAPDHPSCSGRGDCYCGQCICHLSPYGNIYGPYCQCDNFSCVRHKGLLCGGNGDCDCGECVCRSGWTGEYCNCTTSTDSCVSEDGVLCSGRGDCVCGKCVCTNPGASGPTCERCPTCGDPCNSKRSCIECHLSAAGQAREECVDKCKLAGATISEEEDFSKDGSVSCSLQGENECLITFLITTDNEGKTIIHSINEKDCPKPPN
Sequence of αvβ1 (P06756 31-992 limits assumed): as the sequence (P06756 31-992 limits assumed) above
Sequence of αvβ1 (P05556 21-728 limits assumed): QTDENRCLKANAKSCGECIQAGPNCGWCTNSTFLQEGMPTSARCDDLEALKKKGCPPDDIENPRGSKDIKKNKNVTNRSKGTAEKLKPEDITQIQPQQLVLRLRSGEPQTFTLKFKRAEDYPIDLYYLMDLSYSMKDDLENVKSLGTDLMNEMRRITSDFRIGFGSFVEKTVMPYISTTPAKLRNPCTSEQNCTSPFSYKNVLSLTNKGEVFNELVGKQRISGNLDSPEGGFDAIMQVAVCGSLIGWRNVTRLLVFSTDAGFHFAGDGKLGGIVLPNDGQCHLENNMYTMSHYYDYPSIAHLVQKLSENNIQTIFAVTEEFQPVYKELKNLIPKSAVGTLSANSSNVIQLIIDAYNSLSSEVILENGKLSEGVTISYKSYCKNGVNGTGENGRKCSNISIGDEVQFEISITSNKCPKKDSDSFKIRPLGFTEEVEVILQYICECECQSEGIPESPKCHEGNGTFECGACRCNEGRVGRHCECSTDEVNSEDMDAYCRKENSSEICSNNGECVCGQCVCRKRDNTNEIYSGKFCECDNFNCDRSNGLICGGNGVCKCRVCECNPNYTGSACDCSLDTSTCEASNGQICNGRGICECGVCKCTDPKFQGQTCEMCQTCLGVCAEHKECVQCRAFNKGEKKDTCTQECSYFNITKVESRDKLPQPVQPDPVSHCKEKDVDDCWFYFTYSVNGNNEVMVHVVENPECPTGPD

IC50 [1] [nM] | IC50 [2] [nM] | Structure (SMILES)
> 1000 | 100 to 1000 | O=C(O)C[C@H](NC(=O)[C@@H]1CCCN(CCCc2ccc3c(n2)NCCC3)C1)c1cccc(C2CC2)c1F [Compound 559]
100 to 1000 | 100 to 1000 | O=C(NC[C@H](C(=O)O)c1cccc2c1CCC2)[C@@H]1CCCN(CCCc2ccc3c(n2)NCCC3)C1 [Compound 560]
< 100 | < 100 | O=C(NC[C@@H](C(=O)O)c1cccc2c1CCC2)[C@@H]1CCCN(CCCc2ccc3c(n2)NCCC3)C1 [Compound 561]
< 100 | < 100 | O=C(NC[C@H](Nc1ncnc2c(C(F)(F)F)cccc12)C(=O)O)[C@@H]1CCCN(CCCc2ccc3c(n2)NCCC3)C1 [Compound 562]
< 100 | < 100 | O=C(NC[C@H](Nc1ncncc1C(F)(F)F)C(=O)O)[C@@H]1CCCN(CCCc2ccc3c(n2)NCCC3)C1 [Compound 563]
< 100 | < 100 | O=C(NC[C@H](C(=O)O)c1cccc(N2C[C@H]3CC[C@@H]2CO3)c1)[C@@H]1CCCN(CCCc2ccc3c(n2)NCCC3)C1 [Compound 565]
< 100 | < 100 | O=C(NC[C@H](C(=O)O)c1cccc(N2C[C@@H]3CC[C@H]2CO3)c1)[C@@H]1CCCN(CCCc2ccc3c(n2)NCCC3)C1 [Compound 566]
< 100 | < 100 | O=C(Nc1ccccc1)N[C@@H](CNC(=O)[C@@H]1CCCN(CCCc2ccc3c(n2)NCCC3)C1)C(=O)O [Compound 567]
< 100 | < 100 | CC1(C)CN(c2cccc([C@@H](CO[C@@H]3CCCN(CCCc4ccc5c(n4)NCCC5)C3)CC(=O)O)c2)CCO1 [Compound 568]
100 to 1000 | 100 to 1000 | CC1(C)CN(c2cccc([C@H](CO[C@@H]3CCCN(CCCc4ccc5c(n4)NCCC5)C3)CC(=O)O)c2)CCO1 [Compound 569]
< 100 | < 100 | CC1(C)CCCN(c2cccc([C@@H](CO[C@@H]3CCCN(CCCc4ccc5c(n4)NCCC5)C3)CC(=O)O)c2)C1 [Compound 570]
< 100 | < 100 | CC1(C)CCN(c2cccc([C@@H](CO[C@@H]3CCCN(CCCc4ccc5c(n4)NCCC5)C3)CC(=O)O)c2)CC1 [Compound 571]
< 100 | < 100 | CC1(C)CCCN(c2cccc([C@H](CO[C@@H]3CCCN(CCCc4ccc5c(n4)NCCC5)C3)CC(=O)O)c2)C1 [Compound 572]
100 to 1000 | 100 to 1000 | CC1(C)CCN(c2cccc([C@H](CO[C@@H]3CCCN(CCCc4ccc5c(n4)NCCC5)C3)CC(=O)O)c2)CC1 [Compound 573]
< 100 | < 100 | Cc1cc(C)n(-c2cccc([C@@H](CO[C@@H]3CCCN(CCCc4ccc5c(n4)NCCC5)C3)CC(=O)O)c2)n1 [Compound 574]
100 to 1000 | < 100 | Cc1cc(C)n(-c2cccc([C@H](CO[C@@H]3CCCN(CCCc4ccc5c(n4)NCCC5)C3)CC(=O)O)c2)n1 [Compound 575]
< 100 | < 100 | Cc1cc(C(F)(F)F)nn1-c1cccc([C@@H](CO[C@@H]2CCCN(CCCc3ccc4c(n3)NCCC4)C2)CC(=O)O)c1 [Compound 576]
< 100 | < 100 | Cc1cc(C(F)(F)F)nn1-c1cccc([C@H](CO[C@@H]2CCCN(CCCc3ccc4c(n3)NCCC4)C2)CC(=O)O)c1 [Compound 577]
< 100 | < 100 | CC1(C)CN(c2cc([C@@H](CO[C@@H]3CCCN(CCCc4ccc5c(n4)NCCC5)C3)CC(=O)O)ccc2F)CCO1 [Compound 578]
< 100 | < 100 | Cc1cc([C@@H](CO[C@@H]2CCCN(CCCc3ccc4c(n3)NCCC4)C2)CC(=O)O)cc(N2CCOC(C)(C)C2)c1 [Compound 579]
< 100 | < 100 | CC1(C)CN(c2cc([C@H](CO[C@@H]3CCCN(CCCc4ccc5c(n4)NCCC5)C3)CC(=O)O)ccc2F)CCO1 [Compound 580]
100 to 1000 | 100 to 1000 | Cc1cc([C@H](CO[C@@H]2CCCN(CCCc3ccc4c(n3)NCCC4)C2)CC(=O)O)cc(N2CCOC(C)(C)C2)c1 [Compound 581]
< 100 | < 100 | C[C@H]1OCCN(c2cccc([C@H](CC(=O)O)NC(=O)[C@@H]3CCCN(CCCc4ccc5c(n4)NCCC5)C3)c2)[C@H]1C [Compound 582]
< 100 | < 100 | C[C@@H]1OCCN(c2cccc([C@H](CC(=O)O)NC(=O)[C@@H]3CCCN(CCCc4ccc5c(n4)NCCC5)C3)c2)[C@@H]1C [Compound 583]
< 100 | < 100 | C[C@@H]1OCCN(c2cccc([C@H](CC(=O)O)NC(=O)[C@@H]3CCCN(CCCc4ccc5c(n4)NCCC5)C3)c2)[C@H]1C [Compound 584]
< 100 | < 100 | C[C@@H]1[C@@H](C)OCCN1c1cccc([C@H](CC(=O)O)NC(=O)[C@@H]2CCCN(CCCc3ccc4c(n3)NCCC4)C2)c1 [Compound 585]

IC50 [1] [nM] | IC50 [2] [nM] | Structure (SMILES)
< 100 | < 100 | Cc1cc(C)n(-c2cccc([C@H](CC(=O)O)NC(=O)[C@@H]3CCCN(CCCc4ccc5c(n4)NCCC5)C3)c2)c1 [Compound 586]
< 100 | < 100 | CC1(C)CN(c2cccc([C@H](CC(=O)O)NC(=O)[C@@H]3CCCN(CCCc4ccc5c(n4)NCCC5)C3)c2)CC(C)(C)C1 [Compound 587]
< 100 | < 100 | O=C(NC[C@@H](Nc1ccccc1C1CC(F)(F)C1)C(=O)O)[C@@H]1CCCN(CCCc2ccc3c(n2)NCCC3)C1 [Compound 588]
< 100 | < 100 | O=C(NC[C@@H](Nc1cccc(C2CC(F)(F)C2)c1)C(=O)O)[C@@H]1CCCN(CCCc2ccc3c(n2)NCCC3)C1 [Compound 589]
< 100 | < 100 | O=C(NC[C@@H](Nc1cccnc1C1CC(F)(F)C1)C(=O)O)[C@@H]1CCCN(CCCc2ccc3c(n2)NCCC3)C1 [Compound 593]
< 100 | < 100 | CC1(C)CN(c2cccc([C@@H](CNC(=O)[C@@H]3CCCN(CCCc4ccc5c(n4)NCCC5)C3)C(=O)O)c2)CCO1 [Compound 595]
< 100 | < 100 | CC1(C)COCCN1c1cccc([C@@H](CNC(=O)[C@@H]2CCCN(CCCc3ccc4c(n3)NCCC4)C2)C(=O)O)c1 [Compound 597]
< 100 | < 100 | CC1(C)CCCN(c2cccc([C@@H](CNC(=O)[C@@H]3CCCN(CCCc4ccc5c(n4)NCCC5)C3)C(=O)O)c2)C1 [Compound 599]
< 100 | < 100 | CC1(C)CCN(c2cccc([C@@H](CNC(=O)[C@@H]3CCCN(CCCc4ccc5c(n4)NCCC5)C3)C(=O)O)c2)CC1 [Compound 601]
< 100 | < 100 | C[C@H]1CN(c2cccc([C@H](CNC(=O)[C@@H]3CCCN(CCCc4ccc5c(n4)NCCC5)C3)C(=O)O)c2)C[C@H](C)O1 [Compound 603]
< 100 | < 100 | C[C@@H]1CN(c2cccc([C@@H](CNC(=O)[C@@H]3CCCN(CCCc4ccc5c(n4)NCCC5)C3)C(=O)O)c2)C[C@H](C)O1 [Compound 604]
< 100 | < 100 | C[C@@H]1CN(c2cccc([C@H](CNC(=O)[C@@H]3CCCN(CCCc4ccc5c(n4)NCCC5)C3)C(=O)O)c2)C[C@@H](C)O1 [Compound 605]
< 100 | 100 to 1000 | CNC(=O)[C@@H]1CN(C(=O)CCCc2ccc3c(c2)NCCC3)C[C@H]1NC(=O)CC(CC(=O)O)c1ccccc1 (some centres unmarked) [Compound 606]
< 100 | < 100 | CNC(=O)[C@H]1C[C@H](C(=O)N[C@@H](CC(=O)O)c2ccccc2)CN(CCCc2ccc3c(n2)NCCC3)C1 [Compound 607]
> 1000 | > 1000 | O=C(O)[C@@H](c1ccccc1)[C@@H](O)CO[C@@H]1CCCN(CCCc2ccc3c(n2)NCCC3)C1 [Compound 608]
> 1000 | > 1000 | O=C(O)[C@@H](c1ccccc1)[C@H](O)CO[C@@H]1CCCN(CCCc2ccc3c(n2)NCCC3)C1 [Compound 609]
> 1000 | > 1000 | O=C(O)C(c1ccccc1)C(O)CO[C@@H]1CCCN(CCCc2ccc3c(n2)NCCC3)C1 (some centres unmarked) [Compound 610]
> 1000 | > 1000 | O=C(O)[C@H](c1ccccc1)[C@H](O)CO[C@@H]1CCCN(CCCc2ccc3c(n2)NCCC3)C1 [Compound 611]
> 1000 | > 1000 | O=C(O)[C@H](c1ccccc1)[C@@H](O)CO[C@@H]1CCCN(CCCc2ccc3c(n2)NCCC3)C1 [Compound 612]
< 100 | < 100 | O=C(O)C[C@H](NC(=O)[C@@H]1CCCN(CCCc2ccc3c(n2)NCCC3)C1)c1ccc2c(c1)OCC2 [Compound 613]
< 100 | < 100 | O=C(O)C[C@H](NC(=O)[C@@H]1CCCN(CCCc2ccc3c(n2)NCCC3)C1)c1cccc2c1OCO2 [Compound 614]
< 100 | < 100 | O=C(O)C[C@H](NC(=O)[C@@H]1CCCN(CCCc2ccc3c(n2)NCCC3)C1)c1cccc2c1CCO2 [Compound 615]
< 100 | < 100 | O=C(O)C[C@H](NC(=O)[C@@H]1CCCN(CCCc2ccc3c(n2)NCCC3)C1)c1cnn(-c2ccccc2)c1 [Compound 616]
< 100 | < 100 | C[C@@H]1CN(c2cccc([C@H](CC(=O)O)NC(=O)[C@@H]3CCCN(CCCc4ccc5c(n4)NCCC5)C3)c2)C[C@H](C)O1 [Compound 617]
< 100 | < 100 | C[C@@H]1CN(c2cccc([C@H](CC(=O)O)NC(=O)[C@@H]3CCCN(CCCc4ccc5c(n4)NCCC5)C3)c2)C[C@@H](C)O1 [Compound 618]
< 100 | < 100 | O=C(NC[C@H](C(=O)O)c1cccc2cn([C@H]3CCC(F)(F)C3)nc12)[C@@H]1CCCN(CCCc2ccc3c(n2)NCCC3)C1 [Compound 619]
